Compound: C1CSC2=C(C(=O)N1)SC3=C2C=C(C=C3)O [kb NB 142-70] + CCNC(=O)c1noc(-c2cc(C(C)C)c(O)cc2O)c1-c1ccc(CN2CCOCC2)cc1 [Luminespib] (partner 0.01 µM)
Test: relative viability (nuclei count vs DMSO), 5 days (fraction); higher = more cells survive
Conditions: first compound 0.1 µM
Outline: (§1)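 Values are medians from duplicate plates. Each reflects relative viability, defined as the nuclei count of treated wells over that of vehicle wells. Lung cancer cell lines in 1536-well plates were pin-tool dosed one day after seeding with one drug alone or with a fixed anchor-drug dose plus five library-drug doses (not always all listed) in √10 steps, then fixed, stained and imaged at 4× after 5 days.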

Cell Line	relative viability
NCI-H1793	0.188
PC-14	0.149
EKVX	0.81
LC-2-ad	0.997
NCI-H1944	0.708
NCI-H1975	0.286
RERF-LC-KJ	1.33
ABC-1	0.536
NCI-H358	0.278
NCI-H650	0.76
PC-3 [JPC-3]	0.709

Same assay, conditions: first compound 1 µM

Cell Line	relative viability
NCI-H1793	0.179
PC-14	0.173
EKVX	0.857
LC-2-ad	1.04
NCI-H1944	0.726
NCI-H1975	0.197
RERF-LC-KJ	1.27
ABC-1	0.487
NCI-H358	0.152
NCI-H650	0.777
PC-3 [JPC-3]	0.817

Same assay, conditions: first compound 3.162 µM

Cell Line	relative viability
NCI-H1793	0.153
PC-14	0.13
EKVX	0.943
LC-2-ad	0.699
NCI-H1944	0.8
NCI-H1975	0.106
RERF-LC-KJ	0.936
ABC-1	0.336
NCI-H358	0.148
NCI-H650	0.499
PC-3 [JPC-3]	0.627

Compound: C1CSC2=C(C(=O)N1)SC3=C2C=C(C=C3)O [kb NB 142-70] + COc1cc2c(Oc3ccc(NC(=O)C4(C(=O)Nc5ccc(F)cc5)CC4)cc3F)ccnc2cc1OCCCN1CCOCC1 [Foretinib] (partner 0.25 µM)
Test: as above
Conditions: first compound 0.1 µM
Outline: as §1

Cell Line	relative viability
NCI-H1793	0.603
PC-14	0.936
EKVX	0.834
LC-2-ad	0.977
NCI-H1944	0.883
NCI-H1975	0.92
RERF-LC-KJ	0.941
ABC-1	1.11
NCI-H358	0.57
NCI-H650	1.02
PC-3 [JPC-3]	0.999

Same assay, conditions: first compound 1 µM

Cell Line	relative viability
NCI-H1793	0.742
PC-14	0.919
EKVX	0.903
LC-2-ad	0.953
NCI-H1944	0.934
NCI-H1975	0.928
RERF-LC-KJ	0.905
ABC-1	0.979
NCI-H358	0.521
NCI-H650	1.06
PC-3 [JPC-3]	1.07

Same assay, conditions: first compound 3.162 µM

Cell Line	relative viability
NCI-H1793	0.813
PC-14	1.07
EKVX	0.86
LC-2-ad	0.668
NCI-H1944	0.998
NCI-H1975	0.566
RERF-LC-KJ	0.938
ABC-1	0.677
NCI-H358	0.101
NCI-H650	0.851
PC-3 [JPC-3]	1.01

Compound: C1CSC2=C(C(=O)N1)SC3=C2C=C(C=C3)O [kb NB 142-70] + Cc1cc(Nc2cc(N3CCN(C)CC3)nc(Sc3ccc(NC(=O)C4CC4)cc3)n2)n[nH]1 [Tozasertib] (partner 0.1 µM)
Test: as above
Conditions: first compound 0.1 µM
Outline: as §1

Cell Line	relative viability
NCI-H1793	0.377
PC-14	0.569
EKVX	0.353
LC-2-ad	0.451
NCI-H1944	0.244
NCI-H1975	0.787
RERF-LC-KJ	0.445
ABC-1	0.178
NCI-H358	0.109
NCI-H650	0.747
PC-3 [JPC-3]	0.923

Same assay, conditions: first compound 1 µM

Cell Line	relative viability
NCI-H1793	0.346
PC-14	0.612
EKVX	0.382
LC-2-ad	0.428
NCI-H1944	0.244
NCI-H1975	0.746
RERF-LC-KJ	0.486
ABC-1	0.165
NCI-H358	0.0809
NCI-H650	0.668
PC-3 [JPC-3]	0.94

Same assay, conditions: first compound 3.162 µM

Cell Line	relative viability
NCI-H1793	0.197
PC-14	0.531
EKVX	0.466
LC-2-ad	0.341
NCI-H1944	0.27
NCI-H1975	0.28
RERF-LC-KJ	0.445
ABC-1	0.169
NCI-H358	0.077
NCI-H650	0.435
PC-3 [JPC-3]	0.773

Compound: C1CSC2=C(C(=O)N1)SC3=C2C=C(C=C3)O [kb NB 142-70] + NC(=O)Nc1cc(-c2cccc(F)c2)sc1C(=O)N[C@H]1CCCNC1 [AZD7762] (partner 0.2 µM)
Test: as above
Conditions: first compound 0.1 µM
Outline: as §1

Cell Line	relative viability
NCI-H1793	0.6
PC-14	0.353
EKVX	0.739
LC-2-ad	0.826
NCI-H1944	0.492
NCI-H1975	0.652
RERF-LC-KJ	1.02
ABC-1	0.936
NCI-H358	0.437
NCI-H650	0.999
PC-3 [JPC-3]	0.832

Same assay, conditions: first compound 1 µM

Cell Line	relative viability
NCI-H1793	0.667
PC-14	0.295
EKVX	0.704
LC-2-ad	0.825
NCI-H1944	0.514
NCI-H1975	0.748
RERF-LC-KJ	0.985
ABC-1	0.927
NCI-H358	0.44
NCI-H650	1.09
PC-3 [JPC-3]	0.807

Same assay, conditions: first compound 3.162 µM

Cell Line	relative viability
NCI-H1793	0.615
PC-14	0.408
EKVX	0.684
LC-2-ad	0.888
NCI-H1944	0.6
NCI-H1975	0.7
RERF-LC-KJ	1.04
ABC-1	0.758
NCI-H358	0.295
NCI-H650	0.774
PC-3 [JPC-3]	0.773

Compound: C1CSC2=C(C(=O)N1)SC3=C2C=C(C=C3)O [kb NB 142-70] + O=C(CCCCCCC(=O)Nc1ccccc1)NO [Vorinostat] (partner 1 µM)
Test: as above
Conditions: first compound 0.1 µM
Outline: as §1

Cell Line	relative viability
NCI-H1793	0.807
PC-14	0.857
EKVX	0.677
LC-2-ad	0.726
NCI-H1944	0.609
NCI-H1975	0.708
RERF-LC-KJ	0.729
ABC-1	1.13
NCI-H358	0.699
NCI-H650	0.514
PC-3 [JPC-3]	0.814

Same assay, conditions: first compound 1 µM

Cell Line	relative viability
NCI-H1793	1.02
PC-14	0.755
EKVX	0.481
LC-2-ad	0.698
NCI-H1944	0.566
NCI-H1975	0.816
RERF-LC-KJ	0.754
ABC-1	0.975
NCI-H358	0.654
NCI-H650	0.585
PC-3 [JPC-3]	0.846

Same assay, conditions: first compound 3.162 µM

Cell Line	relative viability
NCI-H1793	0.654
PC-14	0.633
EKVX	0.814
LC-2-ad	0.71
NCI-H1944	0.595
NCI-H1975	0.554
RERF-LC-KJ	0.677
ABC-1	0.453
NCI-H358	0.127
NCI-H650	0.363
PC-3 [JPC-3]	0.458

Compound: NCC(=O)Nc1ccc(-n2nc(C(F)(F)F)cc2-c2ccc3c(ccc4ccccc43)c2)cc1 + Cc1cc(Nc2cc(N3CCN(C)CC3)nc(Sc3ccc(NC(=O)C4CC4)cc3)n2)n[nH]1 [Tozasertib] (partner 0.1 µM)
Test: as above
Conditions: first compound 0.02 µM
Outline: as §1

Cell Line	relative viability
NCI-H1793	0.343
PC-14	0.634
EKVX	0.443
LC-2-ad	0.399
NCI-H1944	0.239
NCI-H1975	0.7
RERF-LC-KJ	0.449
ABC-1	0.183
NCI-H358	0.0971
NCI-H650	0.691
PC-3 [JPC-3]	0.9

Same assay, conditions: first compound 0.06325 µM

Cell Line	relative viability
NCI-H1793	0.346
PC-14	0.606
EKVX	0.374
LC-2-ad	0.546
NCI-H1944	0.264
NCI-H1975	0.841
RERF-LC-KJ	0.548
ABC-1	0.199
NCI-H358	0.102
NCI-H650	0.754
PC-3 [JPC-3]	0.889

Same assay, conditions: first compound 0.2 µM

Cell Line	relative viability
NCI-H1793	0.368
PC-14	0.543
EKVX	0.431
LC-2-ad	0.486
NCI-H1944	0.264
NCI-H1975	0.839
RERF-LC-KJ	0.555
NCI-H358	0.12
NCI-H650	0.761
PC-3 [JPC-3]	0.976

Same assay, conditions: first compound 0.6325 µM

Cell Line	relative viability
NCI-H1793	0.393
PC-14	0.517
EKVX	0.39
LC-2-ad	0.469
NCI-H1944	0.26
NCI-H1975	0.726
RERF-LC-KJ	0.552
ABC-1	0.134
NCI-H358	0.0969
NCI-H650	0.676
PC-3 [JPC-3]	0.971

Same assay, conditions: first compound 2 µM

Cell Line	relative viability
NCI-H1793	0.324
PC-14	0.651
EKVX	0.386
LC-2-ad	0.42
NCI-H1944	0.27
NCI-H1975	0.747
RERF-LC-KJ	0.403
ABC-1	0.187
NCI-H358	0.0967
NCI-H650	0.631
PC-3 [JPC-3]	0.828

From the supplement of paper PMC10307832
